Tested on: HIV-1 (IIIB) in MT-4 cells
Test: MT-4 HIV assay
Type: cell-based
Details: Human immunodeficiency virus 1, MT4, 120 h
Method in brief: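 MT-4 cells infected with HIV-1 IIIB (1:250 stock dilution) were incubated with 1:3 serially diluted compounds in RPMI with 10% FBS for 5 days at 37 °C. Cell Titer Glo luminescence was the readout. Plates included mock-infected wells, no-drug wells and 5 uM AZT controls.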

SMILES | EC50 [nM]
COC(=O)N[C@H](C(=O)N[C@@H](Cc1ccc(C#Cc2ccc(N3CCN(C(C)=O)CC3)nc2)cc1)[C@@H](O)CN(Cc1c(F)cc(-c2ccn(C)n2)cc1F)NC(=O)[C@@H](NC(=O)OC)C(C)(C)C)C(C)(C)C [Example 228] | 1.66

Same assay, conditions: Human immunodeficiency virus 1, MT4, 120 h; HIV-1 (IIIB), MT-4 cells, 5 days, Cell Titer Glo; read-out: EC50

SMILES | EC50 [nM]
COC(=O)N[C@H](C(=O)NN(Cc1c(F)cc(-c2ccccn2)cc1F)C[C@H](O)[C@H](Cc1ccc(C#Cc2ccc(N3CC4CCC(C3)N4C(=O)[C@@H]3CCCO3)nc2)cc1)NC(=O)[C@@H](NC(=O)OC)C(C)(C)C(F)(F)F)C(C)(C)C [Example 224, Methyl ((5S,8S,9S,14S)-11-(2,6-difluoro-4-(pyridin-2-yl)benzyl)-9-hydroxy-15,15-dimethyl-3,6,13-trioxo-8-(4-((6-(8-((S)-tetrahydrofuran-2-carbonyl)-3,8-diazabicyclo [3.2.1]octan-3-yl)pyridin-3-yl)ethynyl)benzyl)-5-(1,1,1-trifluoro-2-methylpropan-2-yl)-2-oxa-4,7,11,12-tetraazahexadecan-14-yl)carbamate] | 4.12
COC(=O)N[C@H](C(=O)N[C@@H](Cc1ccc(C#Cc2ccc(N3CC4CCC(C3)N4C(=O)[C@@H]3CCCO3)nc2)cc1)[C@@H](O)CN(Cc1c(F)cc(-c2ccccn2)cc1F)NC(=O)[C@@H](NC(=O)OC)C(C)(C)C)C(C)(C)C [Example 225, Methyl ((5S,8S,9S,14S)-5-(tert-butyl)-11-(2,6-difluoro-4-(pyridin-2-yl)benzyl)-9-hydroxy-15,15-dimethyl-3,6,13-trioxo-8-(4-((6-(8-((S)-tetrahydrofuran-2-carbonyl)-3,8-diazabicyclo[3.2.1]octan-3-yl)pyridin-3-yl)ethynyl)benzyl)-2-oxa-4,7,11,12-tetraazahexadecan-14-yl)carbamate] | 4.26
COC(=O)N[C@H](C(=O)N[C@@H](Cc1ccc(C#Cc2ccc(N3CC4CCC(C3)N4c3ncccn3)nc2)cc1)[C@@H](O)CN(Cc1c(F)cc(-c2ccn(C)n2)cc1F)NC(=O)[C@@H](NC(=O)OC)C(C)(C)C)C(C)(C)C [Example 226] | 14.9
COC(=O)N[C@H](C(=O)N[C@@H](Cc1ccc(C#Cc2ccc(N3CC4CCC(C3)N4C(=O)[C@@H]3CCCO3)nc2)cc1)[C@@H](O)CN(Cc1c(F)cc(-c2ccn(C)n2)cc1F)NC(=O)[C@@H](NC(=O)OC)C(C)(C)C)C(C)(C)C [Example 227, Methyl ((5S,8S,9S,14S)-5-(tert-butyl)-11-(2,6-difluoro-4-(1-methyl-1H-pyrazol-3-yl)benzyl)-9-hydroxy-15,15-dimethyl-3,6,13-trioxo-8-(4-((6-(8-((S)-tetrahydrofuran-2-carbonyl)-3,8-diazabicyclo[3.2.1]octan-3-yl)pyridin-3-yl)ethynyl)benzyl)-2-oxa-4,7,11,12-tetraazahexadecan-14-yl)carbamate] | 2.9
COC(=O)N[C@H](C(=O)NN(Cc1ccc(-c2cnn(C(F)F)c2)cc1F)C[C@H](O)[C@H](Cc1ccc(C#Cc2ccc(N3CC4CCC(C3)N4C3COC3)nc2)cc1)NC(=O)[C@@H](NC(=O)OC)C(C)(C)C(F)(F)F)C(C)(C)C [Example 230, methyl ((5S,8S,9S,14S)-11-(4-(1-(difluoromethyl)-1H-pyrazol-4-yl)-2-fluorobenzyl)-9-hydroxy-15,15-dimethyl-8-(4-((6-(8-(oxetan-3-yl)-3,8-diazabicyclo[3.2.1]octan-3-yl)pyridin-3-yl)ethynyl)benzyl)-3,6,13-trioxo-5-(1,1,1-trifluoro-2-methylpropan-2-yl)-2-oxa-4,7,11,12-tetraazahexadecan-14-yl)carbamate] | 3.97

From patent publication US10294234B2, “HIV inhibitor compounds” (priority 2017, dated 2019)
